In patent US12209072B2, “Cyclopentyl acids as LPA antagonists” (BRISTOL-MYERS SQUIBB COMPANY, priority 2018, dated 2025):

Molecular target: T1, human LPA1 (Homo sapiens, UniProt Q92633)
T1 construct: expressed in transfected cells; host or cells: Chinese hamster ovary (CHO) cells
Assay: LPA1 functional antagonist assay (LPA-induced calcium flux)
Format: cell-based
Details: CHO cells overexpressing human LPA1; inhibition of calcium flux induced by 10 nM LPA; read-out: hLPA1 IC50
Method: The effectiveness of compounds of the present invention as LPA1 inhibitors can be determined in an LPA1 functional antagonist assay as follows:
Chinese hamster ovary cells overexpressing human LPA1 were plated overnight (15,000 cells/well) in poly-D-lysine coated 384-well microplates (Greiner bio-one, Cat #781946) in DMEM/F12 medium (Gibco, Cat #11039). Following overnight culture, cells were loaded with calcium indicator dye (AAT Bioquest Inc, Cat #34601) for 30 minutes at 37° C. The cells were then equilibrated to room temperature for 30 minutes before the assay. Test compounds solubilized in DMSO were transferred to 384 well non-binding surface plates (Corning, Cat #3575) using the Labcyte Echo acoustic dispense and diluted with assay buffer [1×HBSS with calcium/magnesium (Gibco Cat #14025-092), 20 mM HEPES (Gibco Cat #15630-080) and 0.1% fatty acid free BSA (Sigma Cat #A9205)] to a final concentration of 0.5% DMSO. Diluted compounds were added to the cells by FDSS6000 (Hamamatsu) at final concentrations ranging from 0.08 nM to 5 μM. and were then incubated for 20 min at room temperature at which time LPA (Avanti Polar Lipids Cat #857130C) was added at final concentrations of 10 nM to stimulate the cells. The compound IC50 value was defined as the concentration of test compound which inhibited 50% of the calcium flux induced by LPA alone. IC50 values were determined by fitting data to a 4-parameter logistic equation (GraphPad Prism, San Diego CA).

T1 sequence (Q92633 whole entry): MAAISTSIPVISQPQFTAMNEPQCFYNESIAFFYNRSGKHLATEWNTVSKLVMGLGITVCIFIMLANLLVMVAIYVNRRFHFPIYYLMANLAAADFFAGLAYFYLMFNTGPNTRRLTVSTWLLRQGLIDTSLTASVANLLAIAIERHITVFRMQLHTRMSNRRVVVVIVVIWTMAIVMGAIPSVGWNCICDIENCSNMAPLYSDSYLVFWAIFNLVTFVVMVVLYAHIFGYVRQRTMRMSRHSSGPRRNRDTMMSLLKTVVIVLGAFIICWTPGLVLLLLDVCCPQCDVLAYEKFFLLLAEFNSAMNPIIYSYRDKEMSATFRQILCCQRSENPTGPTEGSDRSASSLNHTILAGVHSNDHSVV

Point of comparison: `Cc1nc(-c2nnn(C)c2COC(=O)N(C)CC2CCC2)cnc1O[C@H]1CC[C@H](CC(=O)O)C1` (single isomer, unassigned) [Example 28, 2-(trans-3-((5-(5-((((cyclobutylmethyl)(methyl)carbamoyl)oxy)methyl)-1-methyl-1H-1,2,3-triazol-4-yl)-3-methylpyrazin-2-yl)oxy)cyclopentyl)acetic Acid], IC50 3750 nM. Against it:
- Cc1nc(-c2cnn(C)c2COC(=O)N(C)CC2CCC2)cnc1O[C@H]1CC[C@H](C(=O)O)C1 (single isomer, unassigned) [Example 17] — 9-fold lower, 416 nM
- Cc1nc(-c2nnn(C)c2CNc2noc(CCC3CCC3)n2)ccc1O[C@H]1CC[C@H](CC(=O)O)C1 (racemic) [Example 80, (±)-2-(3-((6-(5-(((5-(2-cyclobutylethyl)-1,2,4-oxadiazol-3-yl)amino)methyl)-1-methyl-1H-1,2,3-triazol-4-yl)-2-methylpyridin-3-yl)oxy)cyclopentyl)acetic Acid] — 35-fold lower, 108 nM
- Cc1nc(-c2nnn(C)c2COC(=O)N(C)CCCCF)ccc1O[C@H]1CC[C@H](CC(=O)O)C1 (racemic) [Example 64, (±)-trans-2-[3-({6-[5-({[(4-fluoro-butyl)(methyl)carbamoyl]oxy}methyl)-1-methyl-1H-1,2,3-triazol-4-yl]-2-methylpyridin-3-yl}oxy)cyclo-pentyl]acetic acid] — 23-fold lower, 165 nM
- Cc1nc(-c2nnn(C)c2COC(=O)N(C)CC2CCC2)cnc1O[C@H]1CC[C@H](CC(=O)O)C1 (racemic) [Example 26, (±)-2-(Trans-3-((5-(5-((((cyclobutylmethyl)(methyl)carbamoyl)oxy)methyl)-1-methyl-1H-1,2,3-triazol-4-yl)-3-methylpyrazin-2-yl)oxy)cyclopentyl)acetic Acid] — 10-fold lower, 371 nM
- Cc1noc(-c2ccc(OC3CCC(C(=O)O)C3)cn2)c1CNc1nccc(-c2ccccc2)n1 (single isomer, unassigned) [Example 43] — 75-fold lower, 50 nM
- Cc1nc(-c2nnn(C)c2COC(=O)N(C)CC2CCC2)cnc1O[C@@H]1CC[C@@H](C(=O)O)C1 (racemic) [Example 13, (±)-Trans-3-((5-(5-((((cyclobutylmethyl)(methyl)carbamoyl)oxy)methyl)-1-methyl-1H-1,2,3-triazol-4-yl)-3-methylpyrazin-2-yl)oxy)cyclopentanecarboxylic Acid] — 6.1-fold lower, 618 nM
- Cc1nc(-c2nnn(C)c2COC(=O)N(C)CC2CCC2)ccc1OC[C@@H]1CC[C@H](C(=O)O)C1 (racemic) [Example 30, (±)-Cis-3-(((6-(5-((((cyclobutylmethyl)(methyl)carbamoyl)oxy)methyl)-1-methyl-1H-1,2,3-triazol-4-yl)-2-methylpyridin-3-yl)oxy)methyl)cyclopentane-1-carboxylic Acid] — 180-fold lower, 21 nM
- Cc1nc(-c2nnn(C)c2CNc2nccc(-c3ccccn3)n2)ccc1O[C@@H]1CC[C@@H](CC(=O)O)C1 (relative stereo) [Example 38, 2-(trans-3-((2-methyl-6-(1-methyl-5-(((4-(pyridin-2-yl)pyrimidin-2-yl)amino)methyl)-1H-1,2,3-triazol-4-yl)pyridin-3-yl)oxy)cyclopentyl)acetic acid] — 6.5-fold lower, 579 nM
- Cc1nc(-c2onc(C)c2COC(=O)N(C)C2CCCC2)ccc1O[C@H]1CC[C@@H](C(=O)O)C1 (racemic) [Example 76, (±)-cis-3-({6-[4-({[cyclopentyl(methyl)carbamoyl]oxy}methyl)-3-methyl-1,2-oxazol-5-yl]-2-methyl-pyridin-3-yl}oxy)cyclopentane-1-carboxylic acid] — 94-fold lower, 40 nM
- Cc1nc(-c2nnn(C)c2COC(=O)N(C)CC2CCC2)ccc1O[C@H]1CC[C@H](C2(C(=O)O)CC2)C1 (racemic) [Example 53, (±)-trans-1-[3-({6-[5-({[(cyclobutyl-methyl)(methyl)carbamoyl]oxy}methyl)-1-methyl-1H-1,2,3-triazol-4-yl]-2-methylpyridin-3-yl}oxy)cyclo-pentyl]cyclopropane-1-carboxylic acid] — 270-fold lower, 14 nM
- Cc1nc(-c2nnn(C)c2COC(=O)N2CC3(CCC3)C2)ccc1O[C@H]1CC[C@H](CC(=O)O)C1 (racemic) [Example 66, (±)-trans-2-[3-({6-[5-({2-azaspiro[3.3]heptane-2-carbonyloxy}methyl)-1-methyl-1H-1,2,3-triazol-4-yl]-2-methylpyridin-3-yl}oxy)cyclopentyl]acetic acid] — 8.3-fold lower, 452 nM
- Cc1nc(-c2nnn(C)c2COC(=O)N(C)CC(C)C)ccc1O[C@H]1CC[C@H](CC(=O)O)C1 (racemic) [Example 55, (±)-trans-2-[3-({2-methyl-6-[1-methyl-5-({[methyl(2-methylpropyl)carbamoyl]oxy}methyl)-1H-1,2,3-triazol-4-yl]pyridin-3-yl}oxy)cyclo-pentyl]acetic acid] — 28-fold lower, 135 nM
- Cc1nc(-c2nnn(C)c2COC(=O)N(C)CC2CCC2)ccc1O[C@H]1CC[C@H](CC(=O)O)C1 (single isomer, unassigned) [Example 6, (±)-Trans-2-((1,3)-3-((6-(5-((((cyclobutylmethyl)(methyl)carbamoyl)oxy)methyl)-1-methyl-1H-1,2,3-triazol-4-yl)-2-methylpyridin-3-yl)oxy)cyclopentyl) acetic Acid] — 340-fold lower, 11 nM
- Cc1nc(-c2nnn(C)c2COC(=O)N(C)CC2CCC2)ccc1OC[C@@H]1CC[C@H](C(=O)O)C1 (single isomer, unassigned) [Example 31] — 350-fold lower, 10.8 nM
- Cc1nc(-c2nnn(C)c2CNC(=O)OCc2ccccc2)ccc1O[C@@H]1CC[C@@H](C(=O)O)C1 (single isomer, unassigned) [Example 21, Trans-3-((6-(5-((((benzyloxy)carbonyl)amino)methyl)-1-methyl-1H-1,2,3-triazol-4-yl)-2-methyl-pyridin-3-yl)oxy)cyclopentane carboxylic acid] — 67-fold lower, 56 nM
- Cc1nc(-c2nnn(C)c2NC(=O)OCC(C)C)ccc1O[C@H]1CC[C@H](CC(=O)O)C1 (racemic) [Example 81, (±)-Trans-2-(3-((6-(5-((isobutoxycarbonyl)amino)-1-methyl-1H-1,2,3-triazol-4-yl)-2-methylpyridin-3-yl)oxy)cyclopentyl)acetic Acid] — 6.1-fold lower, 613 nM
- Cc1nc(-c2nnn(C)c2COC(=O)N(C)CC2CCC2)ccc1O[C@H]1CC[C@@H](C(=O)O)C1 (racemic) [Example 74, (±)-cis-3-({6-[5-({[cyclobutylmethyl)(methyl)carbamoyl]oxy}methyl)-1-methyl-1H-1,2,3-triazol-4-yl]-2-methylpyridin-3-yl}oxy)cyclopentane-1-carboxylic acid] — 37-fold lower, 101 nM
- CCCC1(COC(=O)NCc2c(-c3ccc(O[C@H]4CC[C@H](CC(=O)O)C4)c(C)n3)nnn2C)CCC1 (racemic) [Example 62, (±)-trans-2-[3-[(2-methyl-6-{1-methyl-5-[({[(1-propylcyclobutyl)methoxy]carbonyl}amino)methyl]-1H-1,2,3-triazol-4-yl}pyridin-3-yl)oxy]cyclo-pentyl]acetic acid] — 20-fold lower, 183 nM
- Cc1nc(-c2nnn(C)c2COC(=O)N(C)CC2CCC2)ccc1O[C@H]1CC[C@@H](CC(=O)O)C1 (racemic) [Example 48, (±)-cis-2-[3-({6-[5-({[(cyclobutyl-methyl)(methyl)carbamoyl]oxy}methyl)-1-methyl-1H-1,2,3-triazol-4-yl]-2-methylpyridin-3-yl}oxy)cyclopentyl]acetic acid] — 94-fold lower, 40 nM
- Cc1nc(-c2nnn(C)c2CNc2noc(CC3CC3)n2)ccc1O[C@H]1CC[C@H](CC(=O)O)C1 (racemic) [Example 82, (±)-trans-2-[3-({6-[5-({[5-(cyclopropyl-methyl)-1,2,4-oxadiazol-3-yl]amino}methyl)-1-methyl-1H-1,2,3-triazol-4-yl]-2-methylpyridin-3-yl}oxy)cyclo-pentyl]acetic acid] — 6.6-fold lower, 572 nM
- CCCCN(C)C(=O)OCc1c(-c2nc(C)c(O[C@H]3CC[C@H](CC(=O)O)C3)cc2F)nnn1C (racemic) [Example 68, (±)-trans-2-[3-({6-[5-({[butyl(methyl)carbamoyl]oxy}methyl)-1-methyl-1H-1,2,3-triazol-4-yl]-5-fluoro-2-methyl-pyridin-3-yl}oxy)cyclopentyl]acetic acid] — 26-fold lower, 147 nM
- Cc1nc(-c2nnn(C)c2CNc2nccc(C(C)C)n2)ccc1O[C@@H]1CC[C@@H](CC(=O)O)C1 (relative stereo) [Example 40, 2-(trans-3-((6-(5-(((4-isopropylpyrimidin-2-yl)amino)methyl)-1-methyl-1H-1,2,3-triazol-4-yl)-2-methylpyridin-3-yl)oxy)cyclopentyl)acetic acid] — 41-fold lower, 92 nM
- Cc1nc(-c2nnn(C)c2CNc2nccc(-c3ccccn3)n2)ccc1OC[C@@H]1CC[C@H](C(=O)O)C1 (relative stereo) [Example 36, cis-3-(((2-methyl-6-(1-methyl-5-(((4-(pyridin-2-yl)pyrimidin-2-yl)amino)methyl)-1H-1,2,3-triazol-4-yl)pyridin-3-yl)oxy)methyl)cyclopentane-1-carboxylic acid] — 32-fold lower, 119 nM
